# Results from publication PMC10251509, “Ultrafast Fragment Screening Using Photo-Hyperpolarized (CIDNP) NMR” (Journal of the American Chemical Society, 2023).
# Read-outs that look alike come from different tables or passages of the source.
# Tests used:
# Type in all cases: binding
# [1] = biological target: T1, PIN1 (Homo sapiens, UniProt Q13526); assay: [15N,1H]-HSQC titration series with increasing ligand concentration, PIN1; conditions: values with * could not be fitted to a maximum, Kd most likely higher
# T1 construct: polyhistidine (N); made in house; host or cells: Escherichia coli BL21 (DE3)
# Experimental: (B) Chemical shift perturbation titration studies of the compounds with ^15N-labeled PIN1 measured by [^15N,^1H]-HSQC experiments and shown for residues T154 and A124 in the presence of increasing ligand concentrations. […]
# For the control binding experiments using ligand-induced chemical shift perturbation analysis, standard [^15N, ^1H]-HSQC spectra were measured. The detailed conditions for the 2D experiments acquired at 600 MHz ^1H NMR frequency were the 100 μM ^15N-labeled PDZ2 domain in the absence and presence of equimolar peptide in PDZ2 buffer and at a temperature of 298 K and 50 μM ^15N-labeled PIN1 in the absence and presence of 200 μM ligands in PIN1 buffer and at a temperature of 298 K, respectively. […] The data was zero–filled to 2048 points in the direct proton dimension and to 256 points in the ^15N–dimension. Processing was done with a shifted cosine window function for both dimensions. […] The spinlock times were set at 10 and 400 ms. The STD experiments were measured at 298 K with 16,384 (tmax (^1H) = 974 ms) complex points and 512 scans per increment.
# Figure S7: Chemical shift perturbation-based Kd determination of individual compounds binding to PIN1. The chemical shift displacement of the 15N-1H moieties of A124 (black) and T154 (red) PIN1 (y-axis) in dependence on the compound […]
# The fits to the titrations are highlighted by a line and the Kd extracted is given in mM. Compound 13 titration series ranges 0, 80, 100, 200, 300, 600, 1000, […]
# concentration; compounds 3, 10, and 11 range 0, 200, 500, 1000, 2000, 3000 µM concentration and all the samples contained 80 µM of PIN1 protein and were measured in PIN1 buffer at 298K. […]
# [2] = biological target: T1, PIN1; assay: photo-CIDNP 1D 1H NMR fragment screening (polarization ratio) against PIN1
# Experimental: The combination of these two effects yields the quenching of the photo-CIDNP hyperpolarized signal in the case of binding to a protein, as L decreases and R1,eff increases.
# It is also overexpressed in many human cancer cells.[16] It is thus regarded as a potential drug target, and several studies attempted to discover hits and unravel the structure–activity relationship.[3],[4],[36] […] The NMR experiments were performed using single-scan NMR experiments, comprising light irradiation, an excitation pulse, and a water suppression scheme, as described previously.[13] Although each experiment was recorded in only 2 s, the limiting step was the sample tube exchange. Indeed, the optic fiber needed to be plugged into the tubes while changing the samples, which required ca. 15 s per tube using a house-made connector tightening the tube and the optic fiber with O-rings (Figure S2). Removing the sample from and bringing the new sample into the spectrometer requires an additional 30 s, and a shimming step must be performed for each new tube (30 s).
# As proposed in the theoretical part, the photo-CIDNP traces were recorded in the presence and absence of PIN1. The peak intensity and chemical shifts were analyzed pairwise to identify the hits. […] The reference apo-PIN1 sample was spiked with 1.9 μL of DMSO to compensate for the DMSO that is introduced upon fragment addition, as the fragments are stored in stock solutions of 5 mM 90% DMSO-d6 and 10% D2O.
# The laser used was a Thorlabs L450P1600MM, a diode laser emitting at 450 nm. The laser light was coupled (using appropriate coupling optics) into an optical fiber (Thorlabs, FG950UEC) of length 10 m and a diameter of 0.95 mm. The end of the fiber was inserted into the sample solution inside the 3 mm NMR glass tube to a depth of about 5 mm above the NMR coil region. The library QC and the control binding experiments for PIN1 were measured on a Bruker Avance III HD 600 MHz spectrometer equipped with a cryoprobe and SampleJet.
# [3] = biological target: T1, PIN1; assay: saturation transfer difference (STD) NMR, PIN1; design: key to STD: The observation of ligand signals in the STD NMR spectra detects a protein–ligand interaction; (+); the absence of a signal fails to detect protein–ligand interaction (−); conditions: 200 μM ligand with 20 μM protein
# Experimental: For comparison, the signal decay during a T1ρ NMR experiment was measured at the same sample conditions as the photo-CIDNP experiments (Table 2). The signal decay between two T1ρ relaxation delays of 10 and 400 ms is measured in the absence and presence of the PIN1 protein. The increase in signal decay is calculated as the ratio of the integral’s ratio, i.e., (Γ400ms/Γ10ms)PL/(Γ400ms/Γ10ms)L. The most affine binders, compounds 1 and 13, show a significant reduction of the T1ρ decay ratio upon PIN1 addition, witnessing an increase in the relaxation decay. […] The signal-to-noise of the T1ρ spectra were ca. 300 for a number of transients of 512, corresponding to a measurement time of 25 min, while the photo-CIDNP experiments provided a signal-to-noise of ca. 100 for a single-scan experiment corresponding to a two second’s experiment. […] The signal-to-noise of the STD NMR experiments[1] was only 25 and 19 for compounds 1 and 13, respectively, after 50 min measurement corresponding to a 512 transient’s experiment.
# For the control binding experiments using ligand-induced chemical shift perturbation analysis, standard [^15N, ^1H]-HSQC spectra were measured. The detailed conditions for the 2D experiments acquired at 600 MHz ^1H NMR frequency were the 100 μM ^15N-labeled PDZ2 domain in the absence and presence of equimolar peptide in PDZ2 buffer and at a temperature of 298 K and 50 μM ^15N-labeled PIN1 in the absence and presence of 200 μM ligands in PIN1 buffer and at a temperature of 298 K, respectively. Typically, 220 (t1,max (^15N) = 47.6 ms) × 1024 (t2,max (^1H) = 60.8 ms) complex points, an interscan delay of 0.8 s, and 12 scans per increment were measured. The data was zero–filled to 2048 points in the direct proton dimension and to 256 points in the ^15N–dimension. Processing was done with a shifted cosine window function for both dimensions. […] The spinlock times were set at 10 and 400 ms. The STD experiments were measured at 298 K with 16,384 (tmax (^1H) = 974 ms) complex points and 512 scans per increment. The on-resonance saturation pulse was set at 0 ppm, and the off-resonance saturation pulse was set to 40 ppm with a saturation time of 1 s.
# T1 sequence (Q13526 whole entry): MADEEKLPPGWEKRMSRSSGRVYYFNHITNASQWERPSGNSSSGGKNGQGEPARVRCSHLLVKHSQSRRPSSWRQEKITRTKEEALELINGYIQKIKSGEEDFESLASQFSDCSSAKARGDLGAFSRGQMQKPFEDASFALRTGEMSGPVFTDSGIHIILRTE
compound,measurement,setting,value
"Cc1cccc(-c2nc(C)c(C(=O)O)[nH]2)c1 [Compound 13, reference compound]",Kd,"[1]; fit of CSP build-up of residue A124, read-out: Kd A124",4.5 mM
same,Kd,"[1]; fit of CSP build-up of residue T154, read-out: Kd T154",1.7 mM
same,polarization ratio,"[2]; 50 μM ligand, ±25 μM PIN1, 20 μM fluorescein, 0 = total binding, 1 = no interaction, hit <0.8",0.38
same,polarization ratio,"[2]; low concentration: 20 μM ligand (compound 1: 5 μM), ±2 μM PIN1, single scan",0.73
same,STD,[3],+
same,STD NMR observation,[3]; 512 transients,shows a signal
